Target: T1, human JAK1 (a.a. 837-1142) catalytic domain (Homo sapiens, UniProt P23458)
T1 construct: human JAK1 (a.a. 837-1142); His tag (N); made in house; host or cells: insect cells (baculovirus)
Experiment: In vitro JAK kinase assay (HTRF, phosphorylation of biotinylated peptide), JAK1
Assay type: biochemical
Details: measured at 1 mM ATP
Description: The compound of Formula I was tested for inhibitory activity of JAK targets according to the following in vitro assay described in Park et al., Analytical Biochemistry 1999, 269, 94-104. The catalytic domains of human JAK1 (a.a. 837-1142) and JAK2 (a.a. 828-1132) with an N-terminal His tag were expressed using baculovirus in insect cells and purified. The catalytic activity of JAK1 and JAK2 was assayed by measuring the phosphorylation of a biotinylated peptide. The phosphorylated peptide was detected by homogenous time resolved fluorescence (HTRF). IC50s of compounds were measured for each kinase in the 40 microL reactions that contain the enzyme, ATP and 500 nM peptide in 50 mM Tris (pH 7.8) buffer with 100 mM NaCl, 5 mM DTT, and 0.1 mg/mL (0.01%) BSA. For the 1 mM IC50 measurements, ATP concentration in the reactions was 1 mM. Reactions were carried out at room temperature for 1 hr and then stopped with 20 μL 45 mM EDTA, 300 nM SA-APC, 6 nM Eu-Py20 in assay buffer (Perkin Elmer, Boston, Mass.). Binding to the Europium labeled antibody took place for 40 minutes and HTRF signal was measured on a Fusion plate reader (Perkin Elmer, Boston, Mass.).

T1 sequence (P23458 849-1154 limits assumed): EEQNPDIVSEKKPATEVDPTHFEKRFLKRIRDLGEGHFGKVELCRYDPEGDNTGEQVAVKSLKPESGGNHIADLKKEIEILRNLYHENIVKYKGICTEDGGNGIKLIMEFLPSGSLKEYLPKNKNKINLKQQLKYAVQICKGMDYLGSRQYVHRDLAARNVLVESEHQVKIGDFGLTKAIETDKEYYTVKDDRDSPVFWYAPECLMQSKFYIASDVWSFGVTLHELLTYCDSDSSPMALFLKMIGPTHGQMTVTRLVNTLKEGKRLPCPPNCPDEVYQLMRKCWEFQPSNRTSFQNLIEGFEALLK

SMILES: N#CCC1(n2cc(-c3ncnc4[nH]ccc34)cn2)CN(C2CCN(C(=O)c3ccnc(C(F)(F)F)c3F)CC2)C1 [Formula I, {1-{1-[3-fluoro-2-(trifluoromethyl)isonicotinoyl]piperidin-4-yl}-3-[4-(7H-pyrrolo[2,3-d]pyrimidin-4-yl)-1H-pyrazol-1-yl]azetidin-3-yl}acetonitrile]
- IC50: ≤ 5 nM

Source: patent US9714233B2, “Processes and intermediates for making a JAK inhibitor” (Incyte Corporation, priority 2013, dated 2017)
